This is an account of results in PubChem BioAssay AID624167 (Sanford-Burnham Center for Chemical Genomics, 2012).

Common to all, as to assay: inhibition of PEG-3 promoter-driven reporter – cell-based, HeLa, luciferase, CREF/GAPDH counter-screen panel, dose response (AID 624167)
In general terms: Counterscreens check selectivity or assay interference.

The test system of experiment [1] is PEG-3. The conditions noted are these: HeLa PEG-Prom luciferase reporter, overnight, CREF/GAPDH counter-screens. Background: Reporter assays use an easily measured gene product as a stand-in for the process of interest.
The test system of the next experiment is Rat fibroblasts (CREF). The settings on record: CREF/GAPDH counter-screens.
For experiment [2], the target named is PEG-3 (UniProt Q6IN02). The settings on record: HeLa PEG-Prom luciferase reporter, overnight, CREF/GAPDH counter-screens, mean of runs.
The mark [3] stands for this setting: run 1, dose range 1, individual replicate IC50 per panel.
Setting [4] is: run 2, dose range 1, individual replicate IC50 per panel.

PEG-3 (UniProt Q6IN02), sequence (Q6IN02 whole entry, looked up): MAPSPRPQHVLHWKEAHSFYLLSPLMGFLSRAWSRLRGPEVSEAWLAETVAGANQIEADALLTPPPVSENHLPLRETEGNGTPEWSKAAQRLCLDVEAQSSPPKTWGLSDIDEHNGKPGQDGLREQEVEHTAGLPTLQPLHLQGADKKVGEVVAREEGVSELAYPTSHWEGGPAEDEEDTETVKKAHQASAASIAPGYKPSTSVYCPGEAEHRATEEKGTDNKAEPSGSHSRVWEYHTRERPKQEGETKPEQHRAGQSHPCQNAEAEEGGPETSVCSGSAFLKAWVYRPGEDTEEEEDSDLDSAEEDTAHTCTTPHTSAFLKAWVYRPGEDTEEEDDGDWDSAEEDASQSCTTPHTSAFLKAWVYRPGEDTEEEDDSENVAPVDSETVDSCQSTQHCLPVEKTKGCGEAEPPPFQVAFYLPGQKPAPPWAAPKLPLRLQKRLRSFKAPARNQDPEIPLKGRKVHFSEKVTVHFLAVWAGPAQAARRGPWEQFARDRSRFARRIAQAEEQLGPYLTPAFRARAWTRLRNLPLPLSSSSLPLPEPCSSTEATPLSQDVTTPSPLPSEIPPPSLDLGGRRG

Turning to `Cc1ccccc1OCC(O)CNC1CCC(NCC(O)COc2ccccc2C)CC1` (configuration not stated), the IC50 in the experiment with PEG-3 [1] (setting [3]) is 9.8 µM; in the experiment with PEG-3 [1] (setting [4]), 4.49 µM; in the experiment with Rat fibroblasts (CREF) (mean of runs) it was 10.8 µM; with Rat fibroblasts (CREF) (setting [3]) it was 8.94 µM; with Rat fibroblasts (CREF) (setting [4]), 12.6 µM; at PEG-3 [2] it was 7.15 µM.

In the case of `COc1cccc(-c2sc3ccccc3c2-c2ccc(OCCN(C)C)cc2)c1`, the IC50 with PEG-3 [1] (setting [3]) is 10 µM; in the experiment with PEG-3 [1] (setting [4]) it was 7.61 µM; with Rat fibroblasts (CREF) (mean of runs) it was 14.4 µM; in the experiment on Rat fibroblasts (CREF) (setting [3]), 14.6 µM; in the experiment with Rat fibroblasts (CREF) (setting [4]), 14.2 µM; at PEG-3 [2], 8.8 µM.

`Cc1ccc(-c2cn3cc(C)ccc3n2)cc1`: the IC50 is 0.729 µM in the experiment on PEG-3 [1] (setting [3]); 0.715 µM in the experiment on PEG-3 [1] (setting [4]); 1.28 µM in the experiment with Rat fibroblasts (CREF) (mean of runs); 1.01 µM in the experiment with Rat fibroblasts (CREF) (setting [3]); 1.54 µM in the experiment with Rat fibroblasts (CREF) (setting [4]); 0.722 µM on PEG-3 [2].

`CCOC(=O)c1c(-n2c(C)cc(C=C3C(=O)NC(=S)NC3=O)c2C)sc2c1CCCC2`: the IC50 is 5.9 µM with PEG-3 [1] (setting [3]); 5.47 µM in the experiment with PEG-3 [1] (setting [4]); 11.3 µM in the experiment on Rat fibroblasts (CREF) (mean of runs); 20.3 µM with Rat fibroblasts (CREF) (setting [3]); 2.35 µM in the experiment with Rat fibroblasts (CREF) (setting [4]); 5.69 µM on PEG-3 [2].

For `O=C(Nc1cc(S(=O)(=O)N2CCOCC2)ccc1Cl)c1cc([N+](=O)[O-])ccc1Cl`, the IC50 in the experiment on PEG-3 [1] (setting [3]) was 14.8 µM; in the experiment with PEG-3 [1] (setting [4]), 2.16 µM; in the experiment with Rat fibroblasts (CREF) (mean of runs), 19 µM; with Rat fibroblasts (CREF) (setting [3]), 31.8 µM; in the experiment with Rat fibroblasts (CREF) (setting [4]), 6.14 µM; on PEG-3 [2], 8.46 µM.

With `Cc1cc(C)c2c(N)c(C(=O)Nc3ncc(C)s3)sc2n1`, the IC50 was 1.09 µM in the experiment on PEG-3 [1] (setting [3]); 2.26 µM in the experiment on PEG-3 [1] (setting [4]); 3.32 µM in the experiment with Rat fibroblasts (CREF) (mean of runs); 2.88 µM in the experiment with Rat fibroblasts (CREF) (setting [3]); 3.76 µM with Rat fibroblasts (CREF) (setting [4]); 1.67 µM on PEG-3 [2].

Consider `COc1cc(NS(C)(=O)=O)ccc1Nc1c2ccccc2nc2ccccc12`, for which the IC50 in the experiment with PEG-3 [1] (setting [3]) is 11 µM; in the experiment on PEG-3 [1] (setting [4]), 10.4 µM; in the experiment with Rat fibroblasts (CREF) (mean of runs), 4.97 µM; in the experiment on Rat fibroblasts (CREF) (setting [3]), 8.61 µM; in the experiment on Rat fibroblasts (CREF) (setting [4]) it was 1.33 µM; on PEG-3 [2] it was 10.7 µM.

Turning to `O=C(Nc1ccccn1)c1cc2ccccc2o1`, the IC50 with PEG-3 [1] (setting [3]) is 5.06 µM; in the experiment with PEG-3 [1] (setting [4]) it was 4.01 µM; with Rat fibroblasts (CREF) (mean of runs) it was 1.82 µM; with Rat fibroblasts (CREF) (setting [3]) it was 1.35 µM; with Rat fibroblasts (CREF) (setting [4]) it was 2.29 µM; on PEG-3 [2] it was 4.54 µM.

Consider `O=C(CN1C(=O)c2ccccc2S1(=O)=O)c1ccc2c(c1)OCCO2`, for which the IC50 is 0.73 µM in the experiment on PEG-3 [1] (setting [3]); 0.415 µM in the experiment on PEG-3 [1] (setting [4]); 1.61 µM with Rat fibroblasts (CREF) (mean of runs); 1.28 µM with Rat fibroblasts (CREF) (setting [3]); 1.94 µM with Rat fibroblasts (CREF) (setting [4]); 0.573 µM on PEG-3 [2].

For the compound `COc1cccc(/C=N/NC(=O)c2ccc(-c3ccccc3)cc2)c1O`, the IC50 was 3.33 µM in the experiment on PEG-3 [1] (setting [3]); 1.73 µM with PEG-3 [1] (setting [4]); 24.9 µM in the experiment on Rat fibroblasts (CREF) (mean of runs); 19.6 µM with Rat fibroblasts (CREF) (setting [3]); 30.2 µM in the experiment on Rat fibroblasts (CREF) (setting [4]); 2.53 µM at PEG-3 [2].

Consider `COc1cc(SC)ccc1C(=O)Nc1ncc(C)s1`, for which the IC50 in the experiment with PEG-3 [1] (setting [3]) is 3.02 µM; with PEG-3 [1] (setting [4]), 4.77 µM; in the experiment on Rat fibroblasts (CREF) (mean of runs) it was 1.94 µM; in the experiment on Rat fibroblasts (CREF) (setting [3]) it was 1.58 µM; in the experiment on Rat fibroblasts (CREF) (setting [4]), 2.3 µM; at PEG-3 [2], 3.9 µM.

`COC(=O)c1c(N)sc(C(=O)NCCc2ccccc2)c1C`: the IC50 with PEG-3 [1] (setting [3]) is 2.22 µM; in the experiment on PEG-3 [1] (setting [4]) it was 2.69 µM; in the experiment on Rat fibroblasts (CREF) (mean of runs), 3.88 µM; in the experiment with Rat fibroblasts (CREF) (setting [3]), 4.38 µM; with Rat fibroblasts (CREF) (setting [4]), 3.38 µM; on PEG-3 [2], 2.46 µM.

As for `O=C(NCCc1ccccc1F)c1ccc2c(c1)OCCO2`, the IC50 was 1.02 µM in the experiment on PEG-3 [1] (setting [3]); 0.74 µM with PEG-3 [1] (setting [4]); 1.18 µM with Rat fibroblasts (CREF) (mean of runs); 1.07 µM in the experiment with Rat fibroblasts (CREF) (setting [3]); 1.3 µM in the experiment with Rat fibroblasts (CREF) (setting [4]); 0.881 µM on PEG-3 [2].

Turning to `O=c1c2ccccc2cnn1-c1nc2ccccc2[nH]1`, the IC50 in the experiment with PEG-3 [1] (setting [3]) is 0.686 µM; with PEG-3 [1] (setting [4]) it was 0.76 µM; with Rat fibroblasts (CREF) (mean of runs), 0.546 µM; with Rat fibroblasts (CREF) (setting [3]), 0.475 µM; with Rat fibroblasts (CREF) (setting [4]), 0.617 µM; at PEG-3 [2], 0.723 µM.

As for `O=C(NCCc1ccccc1)c1ccc2c(c1)OCCO2`, the IC50 in the experiment on PEG-3 [1] (setting [3]) was 0.646 µM; with PEG-3 [1] (setting [4]) it was 0.625 µM; in the experiment with Rat fibroblasts (CREF) (mean of runs) it was 1.73 µM; in the experiment with Rat fibroblasts (CREF) (setting [3]), 1.36 µM; with Rat fibroblasts (CREF) (setting [4]) it was 2.1 µM; on PEG-3 [2], 0.636 µM.

For the compound `Cc1ccc2nc(-c3ccccc3)cn2c1`, the IC50 in the experiment on PEG-3 [1] (setting [3]) is 1.02 µM; with PEG-3 [1] (setting [4]) it was 1.01 µM; with Rat fibroblasts (CREF) (mean of runs), 0.783 µM; in the experiment on Rat fibroblasts (CREF) (setting [3]) it was 0.619 µM; in the experiment on Rat fibroblasts (CREF) (setting [4]), 0.948 µM; on PEG-3 [2], 1.01 µM.

Consider `CCc1ccc(C(=O)Nc2nc3ccccc3[nH]2)cc1`, for which the IC50 in the experiment with PEG-3 [1] (setting [3]) was 2.24 µM; in the experiment on PEG-3 [1] (setting [4]), 2.95 µM; in the experiment with Rat fibroblasts (CREF) (mean of runs), 0.476 µM; in the experiment with Rat fibroblasts (CREF) (setting [3]), 0.298 µM; in the experiment with Rat fibroblasts (CREF) (setting [4]), 0.654 µM; at PEG-3 [2] it was 2.59 µM.

By IC50 is commonly meant the concentration that inhibits the measured activity by half.
